In ChEMBL document CHEMBL5465560, “Selectivity Literature for EUbOPEN Chemogenomic Library” (2024) one finds % of control, dTM and % of inhibition data, which are given here for six compounds.

Experiment [1] has as its target T1, Tyrosine-protein kinase JAK3 (Homo sapiens) (UniProt P52333).
T1 sequence (whole entry): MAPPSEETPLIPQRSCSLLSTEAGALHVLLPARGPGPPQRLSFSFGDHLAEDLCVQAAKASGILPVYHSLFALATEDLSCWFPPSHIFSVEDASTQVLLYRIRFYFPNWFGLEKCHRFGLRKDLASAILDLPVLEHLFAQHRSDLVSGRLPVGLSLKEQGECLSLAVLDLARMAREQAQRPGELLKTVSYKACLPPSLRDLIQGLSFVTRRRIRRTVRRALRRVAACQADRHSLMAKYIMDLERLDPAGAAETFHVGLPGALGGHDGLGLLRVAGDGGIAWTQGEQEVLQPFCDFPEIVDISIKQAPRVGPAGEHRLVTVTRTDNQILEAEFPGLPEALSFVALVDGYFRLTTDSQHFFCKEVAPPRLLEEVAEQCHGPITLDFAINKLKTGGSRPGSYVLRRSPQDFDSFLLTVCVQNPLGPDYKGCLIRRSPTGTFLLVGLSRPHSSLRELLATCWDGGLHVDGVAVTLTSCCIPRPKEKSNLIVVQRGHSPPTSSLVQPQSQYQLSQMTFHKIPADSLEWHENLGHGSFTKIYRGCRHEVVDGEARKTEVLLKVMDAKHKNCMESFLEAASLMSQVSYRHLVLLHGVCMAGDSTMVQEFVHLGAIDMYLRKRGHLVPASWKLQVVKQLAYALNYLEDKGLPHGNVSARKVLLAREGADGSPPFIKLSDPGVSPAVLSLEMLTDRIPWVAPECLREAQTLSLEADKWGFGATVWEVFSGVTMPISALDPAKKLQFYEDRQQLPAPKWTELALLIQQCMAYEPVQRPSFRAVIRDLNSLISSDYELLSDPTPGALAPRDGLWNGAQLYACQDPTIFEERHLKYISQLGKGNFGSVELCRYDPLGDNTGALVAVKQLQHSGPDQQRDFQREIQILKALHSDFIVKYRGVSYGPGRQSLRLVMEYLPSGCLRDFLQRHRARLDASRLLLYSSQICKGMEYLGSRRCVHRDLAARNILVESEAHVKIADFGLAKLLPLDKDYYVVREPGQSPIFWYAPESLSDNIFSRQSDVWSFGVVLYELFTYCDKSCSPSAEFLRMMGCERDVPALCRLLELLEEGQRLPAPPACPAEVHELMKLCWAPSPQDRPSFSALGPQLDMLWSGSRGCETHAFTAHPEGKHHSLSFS
In words: Selectivity interaction (Ambit KINOMEscan and KiNATiv profiling in Jurkat cells) EUB0000090b JAK3. Type of experiment: cell-based. Particulars: at 1 µM.

Experiment [2] has as its target Casein kinase I isoform epsilon (Homo sapiens, UniProt P49674). In words: Selectivity interaction (Ambit KINOMEscan and KiNATiv profiling in Jurkat cells) EUB0000090b CSNK1E. The class given is cell-based. The following applies: at 1 µM.
Experiment [3] deals with Calcium/calmodulin-dependent protein kinase kinase 1 (Homo sapiens) (UniProt Q8N5S9). The following applies: at 10 µM.
The target in experiment [4] is T2, Serine/threonine-protein kinase 3 (Homo sapiens) (UniProt Q13188).
T2 sequence (whole entry): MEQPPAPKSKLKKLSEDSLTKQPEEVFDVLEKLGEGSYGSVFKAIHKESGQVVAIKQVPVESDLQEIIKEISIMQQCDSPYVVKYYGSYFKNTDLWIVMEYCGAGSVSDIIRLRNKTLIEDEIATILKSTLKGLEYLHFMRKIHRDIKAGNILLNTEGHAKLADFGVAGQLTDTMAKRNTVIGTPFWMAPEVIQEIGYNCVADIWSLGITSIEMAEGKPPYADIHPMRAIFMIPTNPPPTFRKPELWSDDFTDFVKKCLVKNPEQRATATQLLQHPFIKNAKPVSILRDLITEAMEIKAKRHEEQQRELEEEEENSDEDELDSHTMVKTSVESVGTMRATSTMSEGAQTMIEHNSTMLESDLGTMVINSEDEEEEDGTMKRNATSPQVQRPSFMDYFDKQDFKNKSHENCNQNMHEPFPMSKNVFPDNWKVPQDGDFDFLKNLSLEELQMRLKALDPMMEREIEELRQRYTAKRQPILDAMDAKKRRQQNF
In words: Selectivity interaction (Kinase panel (DSF assay)) EUB0001558a STK3.

The target of experiment [5] is Serine/threonine-protein kinase pim-3 (Homo sapiens) (UniProt Q86V86). In words: Selectivity interaction (Kinase panel (literature)) EUB0001199aCl PIM3. The following applies: at 1 µM.
In experiment [6] the target is T3, Serine/threonine-protein kinase Sgk2 (Homo sapiens) (UniProt Q9HBY8).
T3 sequence (whole entry): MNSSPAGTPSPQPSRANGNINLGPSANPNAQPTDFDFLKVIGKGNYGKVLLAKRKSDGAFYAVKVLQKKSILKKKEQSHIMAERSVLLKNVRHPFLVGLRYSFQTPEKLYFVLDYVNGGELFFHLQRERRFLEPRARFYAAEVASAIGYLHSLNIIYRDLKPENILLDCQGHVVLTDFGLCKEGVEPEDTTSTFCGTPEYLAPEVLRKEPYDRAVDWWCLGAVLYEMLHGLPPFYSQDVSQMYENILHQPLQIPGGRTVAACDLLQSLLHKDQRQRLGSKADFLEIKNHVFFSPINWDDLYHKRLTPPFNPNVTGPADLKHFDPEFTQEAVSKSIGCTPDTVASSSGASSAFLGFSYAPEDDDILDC
In words: Selectivity interaction (ActivX KiNativ screen (kinase selectivity in THP-1 cell lysates)) EUB0000639a SGK2. Type of experiment: subcellular. Particulars: lysate.

The target in experiment [7] is Ribosomal protein S6 kinase alpha-2 (Homo sapiens) (UniProt Q15349). In words: Selectivity interaction (KinomeScan (DiscoverX)) EUB0000695a RPS6KA2. Particulars: at 100 nM.
Sequence of Ribosomal protein S6 kinase alpha-2 (Homo sapiens) (Q15349 whole entry): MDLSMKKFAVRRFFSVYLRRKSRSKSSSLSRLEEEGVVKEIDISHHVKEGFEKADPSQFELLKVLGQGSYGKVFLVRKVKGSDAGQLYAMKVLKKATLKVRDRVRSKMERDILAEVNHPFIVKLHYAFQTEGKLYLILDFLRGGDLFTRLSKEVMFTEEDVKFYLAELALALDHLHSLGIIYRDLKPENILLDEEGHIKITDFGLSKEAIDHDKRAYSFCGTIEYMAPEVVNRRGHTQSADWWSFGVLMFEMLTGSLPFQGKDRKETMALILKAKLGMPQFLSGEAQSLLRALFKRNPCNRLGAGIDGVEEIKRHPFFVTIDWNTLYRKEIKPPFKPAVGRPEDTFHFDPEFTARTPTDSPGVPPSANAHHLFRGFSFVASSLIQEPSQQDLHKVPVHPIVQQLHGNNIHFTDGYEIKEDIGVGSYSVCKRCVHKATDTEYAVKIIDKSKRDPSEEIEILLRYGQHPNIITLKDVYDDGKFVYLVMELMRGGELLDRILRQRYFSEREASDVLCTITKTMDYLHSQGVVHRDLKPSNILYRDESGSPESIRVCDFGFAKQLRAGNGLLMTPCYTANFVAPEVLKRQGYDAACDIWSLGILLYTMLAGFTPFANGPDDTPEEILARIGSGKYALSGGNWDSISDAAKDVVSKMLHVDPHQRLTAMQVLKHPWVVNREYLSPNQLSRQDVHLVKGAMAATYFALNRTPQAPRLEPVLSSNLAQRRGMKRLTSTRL

Sequence of Calcium/calmodulin-dependent protein kinase kinase 1 (Homo sapiens) (Q8N5S9 whole entry, looked up): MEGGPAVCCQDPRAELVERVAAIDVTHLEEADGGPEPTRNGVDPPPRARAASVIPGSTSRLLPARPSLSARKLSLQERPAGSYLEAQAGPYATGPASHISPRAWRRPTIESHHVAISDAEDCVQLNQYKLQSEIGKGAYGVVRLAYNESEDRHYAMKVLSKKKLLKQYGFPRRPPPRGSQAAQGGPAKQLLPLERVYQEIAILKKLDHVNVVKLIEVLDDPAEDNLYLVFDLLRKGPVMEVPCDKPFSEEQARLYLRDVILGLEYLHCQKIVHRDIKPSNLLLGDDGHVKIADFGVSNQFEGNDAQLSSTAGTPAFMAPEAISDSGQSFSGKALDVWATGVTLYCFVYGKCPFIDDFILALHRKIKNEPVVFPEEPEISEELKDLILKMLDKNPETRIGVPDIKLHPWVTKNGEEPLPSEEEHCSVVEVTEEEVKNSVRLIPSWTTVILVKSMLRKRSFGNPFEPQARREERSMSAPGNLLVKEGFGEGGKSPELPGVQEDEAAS
Sequence of Casein kinase I isoform epsilon (P49674 whole entry, looked up, canonical isoform): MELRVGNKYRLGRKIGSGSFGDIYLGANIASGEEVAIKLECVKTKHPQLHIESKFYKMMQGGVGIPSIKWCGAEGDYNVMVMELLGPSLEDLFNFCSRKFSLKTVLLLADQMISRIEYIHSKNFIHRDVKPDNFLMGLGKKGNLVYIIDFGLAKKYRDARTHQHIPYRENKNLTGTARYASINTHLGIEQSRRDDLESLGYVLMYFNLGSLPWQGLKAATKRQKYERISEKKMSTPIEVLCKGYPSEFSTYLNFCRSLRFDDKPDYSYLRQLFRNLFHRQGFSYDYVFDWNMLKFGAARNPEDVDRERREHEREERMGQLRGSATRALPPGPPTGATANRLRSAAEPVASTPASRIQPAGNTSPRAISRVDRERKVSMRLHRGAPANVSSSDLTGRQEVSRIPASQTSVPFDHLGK

Take `CN(C)C/C=C/C(=O)Nc1ccc(C(=O)N2CCCC(Nc3ncc(Cl)c(-c4c[nH]c5ccccc45)n3)C2)cc1` (stereo unspecified): the values for the % of control in experiment [1] and in experiment [2] were 100% and 80%, respectively.
For `Cc1cc([C@@H](C)Nc2ccccc2C(=O)O)c2nc(N3CCOCC3)cc(=O)n2c1` [AZD-6482], in experiment [3], the % of control came out at 98%.
For the compound `CC(C)(O)[C@H](F)CN1Cc2cc(NC(=O)c3cnn4cccnc34)c(N3CCOCC3)cc2C1=O`, the dTM in experiment [4] was determined as 2.1 K.
In the case of `CN1Cc2nccc(-c3cn(C)nc3-c3ccc(F)cc3)c2C1=O`, the % of inhibition in experiment [5] worked out at 1%.
Consider `CC[C@@H]1[C@H](F)C(=O)N[C@@H]1COc1nccc2cc(C(N)=O)c(OC)cc12` [ZIMLOVISERTIB], for which the % of inhibition was -1% in experiment [6] (at 0.01 µM); 3.1% in experiment [6] (at 0.04 µM); -5.7% in experiment [6] (at 0.2 µM); -1% in experiment [6] (at 1 µM); -1.4% in experiment [6] (at 5 µM).
The compound `Cc1cc(F)c(C(=O)Nc2cccc(-c3nncn3C(C)C)n2)cc1-n1cnc(C2CC2)c1` returned a % of control in experiment [7] of 73%.
